Where no end group is shown, it is not given here. red fluorescent dye = not defined here
Key:
[1] = target: T1, p70S6K (Homo sapiens, UniProt P23443); test: Cell-based kinase assay, phosphorylation of intracellular substrate (Ser-235/236 S6)
T1 construct: endogenous in cells
Method: (§1) As a specific substrate, the phosphorylation level of GSK-3[…] at Ser-9 was also evaluated. […] The decrease was specific to the AKT phosphorylation site on GSK-3[…] at Ser-9, since a change in the phosphorylation level of GSK-3[…] at Tyr-216 or GSK-3[…] at Tyr-279 was not observed. Moreover, the in vivo reduction of the phosphorylation of AKT substrates was more obvious at the injection site, since a significant change in the phosphorylation of AKT substrates in the frontal cortex or cerebellum between the two hemispheres was not observed. […] To test the specificity/selectivity of ZaTa as the inhibitor of AKT1 versus the other major kinases, a series of in vitro kinase assays was performed at IC50 for AKT1 and at ten times higher concentrations. […]
(§2) Phosphorylation sites for kinases analyzed herein included Ser-235/236 S6 (a substrate for p70S6K), Tyr-207 CRKL (a substrate for Abl; Zipfel, et al. (2004) supra), Ser-241 PDK1 (a substrate for PI3K), Tyr-1022/1023 JAK1 (a substrate for JAK3; Wang, et al. (2003) supra), Ser-421 Huntingtin (a substrate for SGK; Rangone, et al. (2004) supra), Tyr-783 PLC (a substrate for TrkB; Middlemas, et al. (1994) supra), and Ser-338 cRaf (a substrate for PAK3; King, et al. (1998) supra).

[2] = system: N2a cells; test: Trypan blue staining, live and dead cell count; format: cell-based
From the text: Therefore, in addition to capturing live images, cells were stained with trypan blue at different time intervals following treatment with ZaTa and counted by a light microscope using a hemocytometer.

[3] = target: AKT-PKAc complex (Mus musculus, UniProt P31750); test: In vivo co-immunoprecipitation of AKT-PKAc complex from striatum; design: ZaTa could disrupt the physical complex between AKT and PKAc in vivo; from tissue; host or cells: striatum of adult C57BL/6 mouse; species or system C57BL/6 mouse; details: versus vehicle-treated hemisphere
Method: The phenotypic consequence of disrupting the AKT-PKAc complex was also determined. ZaTa peptide was injected into the striatum of one hemisphere of the brain and DMSO, as vehicle, was injected into the other brain hemisphere of an adult C57BL/6 mouse under anesthesia. The brain was removed and dissected. Equal protein amounts from each hemisphere were subjected to immunoprecipitation by an anti-AKT antibody. […] To compare PKAc protein levels in the ZaTa- and vehicle-treated brain hemisphere lysates, western blot analysis was conducted.

[4] = system: PKA, PKC, CDKs; test: In vivo phosphorylation of substrates of PKA, PKC, CDKs (consensus-site phospho-specific antibodies); design: species or system mouse; details: after in vivo injection
Method: To analyze in vivo selectivity, ZaTa was injected into one hemisphere and DMSO in the other hemisphere, as above, and a series of western blot analyses was preformed with phospho-specific antibodies which recognize a phosphorylated substrate or each one of the kinases that ZaTa inhibited at higher concentrations in vitro. […] Given the high functional and structural homology between p70S6K and AKT, the in vivo inhibitory effect of ZaTa on p70S6K was contemplated. Furthermore, the in vivo effect of ZaTa on the phosphorylation levels of substrates for PKA, PKC, CDKs using phospho-specific antibodies recognizing the phosphorylated consensus sites of these kinases was analyzed. In contrast to the consistent decrease in phosphorylation of AKT substrates, significant changes in the phosphorylation level of PKA, PKC and CDKs substrates was not observed after in vivo injection of ZaTa. […]

[5] = target: TrkB (Homo sapiens, UniProt Q16620); test: In vitro kinase assay TrkB; format: biochemical; details: ten times higher concentration than 0.1 μM
Method: As a specific substrate, the phosphorylation level of GSK-3[…] at Ser-9 was also evaluated. […] The decrease was specific to the AKT phosphorylation site on GSK-3[…] at Ser-9, since a change in the phosphorylation level of GSK-3[…] at Tyr-216 or GSK-3[…] at Tyr-279 was not observed. Moreover, the in vivo reduction of the phosphorylation of AKT substrates was more obvious at the injection site, since a significant change in the phosphorylation of AKT substrates in the frontal cortex or cerebellum between the two hemispheres was not observed. […] To test the specificity/selectivity of ZaTa as the inhibitor of AKT1 versus the other major kinases, a series of in vitro kinase assays was performed at IC50 for AKT1 and at ten times higher concentrations. A panel of the following 32 kinases was first tested in vitro using the active form of each kinase and a specific substrate: AKT2, AKT3, PKA, PKC[…], PKC, PI3K[…], PI3K[…], PI3K, SGK, PAK2, PAK3, SAPK2/p38, Abl, CaMKII, CDK1/cyclinB, CDK5/p35, CK1, CK2, CSK, GSK3[…], GSK3[…], JNK1[…]1, MAPK1, p70S6K, PDGFR[…], PDGFR[…], PDK1, PKG1[…], TrkB, JAK2, JAK3, and Syk. […] However, at ten times higher concentration, ZaTa inhibited AKT2 (63%), PI3K[…] (72%), p70S6K (64%), SGK (73%), PAK3 (83%), JAK3 (79%), TrkB (84%), and Abl (42%). […]

[6] = system: PI3K; test: Cell-based kinase assay, phosphorylation of intracellular substrate (Ser-241 PDK1)
Method: as §1, §2

[7] = target: PAK3 (Homo sapiens, UniProt O75914); test: Cell-based kinase assay, phosphorylation of intracellular substrate (Ser-338 cRaf)
Method: as §1, §2

TrkB, sequence (Q16620 32-822, species assumed): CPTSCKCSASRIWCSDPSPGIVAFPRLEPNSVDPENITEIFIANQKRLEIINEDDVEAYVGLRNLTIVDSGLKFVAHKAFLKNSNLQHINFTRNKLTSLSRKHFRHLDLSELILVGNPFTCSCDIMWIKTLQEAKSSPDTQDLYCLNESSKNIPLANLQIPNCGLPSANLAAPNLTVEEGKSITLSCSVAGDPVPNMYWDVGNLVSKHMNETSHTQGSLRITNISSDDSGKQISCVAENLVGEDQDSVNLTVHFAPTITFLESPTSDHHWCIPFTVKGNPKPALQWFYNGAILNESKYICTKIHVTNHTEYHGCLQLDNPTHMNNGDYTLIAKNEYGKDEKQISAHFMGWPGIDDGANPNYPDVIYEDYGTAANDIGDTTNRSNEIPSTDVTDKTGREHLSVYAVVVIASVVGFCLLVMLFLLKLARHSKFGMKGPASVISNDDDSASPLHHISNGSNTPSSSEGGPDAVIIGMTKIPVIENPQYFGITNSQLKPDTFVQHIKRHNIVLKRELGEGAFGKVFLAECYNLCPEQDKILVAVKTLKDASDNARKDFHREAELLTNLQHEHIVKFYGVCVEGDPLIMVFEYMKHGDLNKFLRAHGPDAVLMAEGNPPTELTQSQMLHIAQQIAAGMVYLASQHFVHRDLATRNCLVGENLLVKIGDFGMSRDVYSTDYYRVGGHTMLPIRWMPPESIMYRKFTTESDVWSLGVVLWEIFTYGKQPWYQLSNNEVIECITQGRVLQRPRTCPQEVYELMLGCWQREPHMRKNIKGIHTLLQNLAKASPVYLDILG
PAK3, sequence (O75914 whole entry, species assumed): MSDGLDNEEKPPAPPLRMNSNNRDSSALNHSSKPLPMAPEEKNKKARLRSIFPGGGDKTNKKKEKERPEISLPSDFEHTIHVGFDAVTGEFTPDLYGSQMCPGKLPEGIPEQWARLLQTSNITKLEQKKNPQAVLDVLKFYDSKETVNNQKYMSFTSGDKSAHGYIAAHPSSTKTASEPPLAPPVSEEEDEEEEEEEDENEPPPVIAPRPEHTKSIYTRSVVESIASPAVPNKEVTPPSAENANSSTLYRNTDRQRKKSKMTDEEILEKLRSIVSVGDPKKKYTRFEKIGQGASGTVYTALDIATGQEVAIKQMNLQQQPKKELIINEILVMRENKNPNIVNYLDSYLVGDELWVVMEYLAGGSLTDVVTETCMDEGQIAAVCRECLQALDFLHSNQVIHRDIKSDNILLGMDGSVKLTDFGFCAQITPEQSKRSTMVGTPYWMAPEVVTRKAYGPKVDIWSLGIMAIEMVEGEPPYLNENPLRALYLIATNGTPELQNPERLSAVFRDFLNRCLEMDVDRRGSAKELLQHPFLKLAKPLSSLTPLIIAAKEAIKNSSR
T1 sequence (P23443 whole entry): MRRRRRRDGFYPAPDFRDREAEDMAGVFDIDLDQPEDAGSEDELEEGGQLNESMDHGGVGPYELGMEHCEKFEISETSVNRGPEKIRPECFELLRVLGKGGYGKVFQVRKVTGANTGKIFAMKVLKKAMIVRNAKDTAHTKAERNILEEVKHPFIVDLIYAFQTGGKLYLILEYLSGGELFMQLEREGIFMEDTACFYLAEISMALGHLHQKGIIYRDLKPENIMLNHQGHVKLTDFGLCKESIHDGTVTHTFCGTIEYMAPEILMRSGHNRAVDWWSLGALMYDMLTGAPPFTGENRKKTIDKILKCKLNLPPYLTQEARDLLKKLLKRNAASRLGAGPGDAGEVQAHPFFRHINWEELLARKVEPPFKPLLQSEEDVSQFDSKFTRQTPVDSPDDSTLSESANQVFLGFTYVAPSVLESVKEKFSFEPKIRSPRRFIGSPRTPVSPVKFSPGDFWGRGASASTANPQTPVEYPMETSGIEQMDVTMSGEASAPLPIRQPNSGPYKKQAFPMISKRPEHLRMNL
AKT-PKAc complex, sequence (P31750 whole entry, one chain of several): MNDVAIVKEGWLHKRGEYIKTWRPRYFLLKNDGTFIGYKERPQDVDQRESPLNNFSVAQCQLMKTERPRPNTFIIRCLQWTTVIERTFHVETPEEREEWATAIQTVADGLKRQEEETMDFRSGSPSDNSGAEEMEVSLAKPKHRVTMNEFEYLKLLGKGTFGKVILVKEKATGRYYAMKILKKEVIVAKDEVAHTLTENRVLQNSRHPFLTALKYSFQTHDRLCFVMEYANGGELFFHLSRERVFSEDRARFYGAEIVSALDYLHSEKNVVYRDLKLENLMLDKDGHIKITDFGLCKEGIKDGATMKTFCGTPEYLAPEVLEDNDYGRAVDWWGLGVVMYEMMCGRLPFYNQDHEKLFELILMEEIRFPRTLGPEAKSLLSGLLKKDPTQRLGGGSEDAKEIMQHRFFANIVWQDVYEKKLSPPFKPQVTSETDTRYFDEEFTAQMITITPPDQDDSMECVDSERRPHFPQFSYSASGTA

Substance	inhibition of p70S6K in cells [1]	increase in the number of dead cells ([2]; counted at time points from 12 to 72 hours)	number of live cells, trypan blue ([2]; different time intervals)	amount of PKAc in physical contact with AKT, in vivo [3]	changes in phosphorylation level of PKA, PKC and CDKs substrates [4]	inhibition of TrkB [5] [%]	inhibition of PI3K in cells [6]	inhibition of PAK3 in cells [7]
AKRVKGRTWTLCGTPEY [ZaTa]	could inhibit p70S6K	not seen	dose-dependent decrease	dramatically reduced	not observed	84		
labeled ZaTa: ZaTa peptide labeled with a red fluorescent dye at its N-terminus ({red fluorescent dye}-AKRVKGRTWTLCGTPEY; reading uncertain)							did not cause inhibition	did not cause inhibition
